Assay [1] has as its target T1, AgDAE (Arthrobacter globiformis, UniProt A0A1L7NQ96).
T1 sequence (A0A1L7NQ96 1-289): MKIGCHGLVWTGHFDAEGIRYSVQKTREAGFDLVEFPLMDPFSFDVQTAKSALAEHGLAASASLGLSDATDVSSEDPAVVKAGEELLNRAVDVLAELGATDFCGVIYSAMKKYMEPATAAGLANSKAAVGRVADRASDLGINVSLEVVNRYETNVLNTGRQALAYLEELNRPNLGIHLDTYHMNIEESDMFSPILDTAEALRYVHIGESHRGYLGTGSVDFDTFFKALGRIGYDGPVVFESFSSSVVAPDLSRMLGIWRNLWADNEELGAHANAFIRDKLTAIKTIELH
It counts as biochemical. The conditions noted are these: 50 °C, 50 mM sodium phosphate pH 8.0, 2 mM MgSO4; read-out: Allulose → Fructose / K m.

For assay [2], the target named is T1, AgDAE. The format is biochemical. To be noted: 50 °C, 50 mM sodium phosphate pH 8.0, 2 mM MgSO4; read-out: Fructose → Allulose / K m.

SMILES strings stand for the structures. Where two headings read alike, the source gives them in different places.

With `OCC1(O)OC[C@@H](O)[C@@H](O)[C@H]1O` (stereo partly drawn) [D-allulose], at AgDAE [1], the Km turned out to be 11.7 ± 0.7 mM.
With `OCC1(O)OC[C@@H](O)[C@@H](O)[C@@H]1O` (stereo partly drawn) [D-fructose], the Km on AgDAE [2] turned out to be 21.1 ± 5.6 mM.

Values taken from PMC12401175, “Construction of hyperthermostable D‐allulose 3‐epimerase from Arthrobacter globiformis M30 using the sequence information from Arthrobacter psychrolactophilus” (FEBS Open Bio, 2025).
